Test results published in PubChem BioAssay AID1259407 (Chemical Carcinogenesis Research Information System (CCRIS), 2018).
The source made the active and inactive calls. How the calls were made is not given here.

Test system: CCRIS mutagenicity, Ames/micronucleus/aberration tests
Experiment: CCRIS mutagenicity studies
[1] = Test System: AMES SALMONELLA TYPHIMURIUM, Strain/Indicator: TA98, Metabolic Activation: NONE, Method: PREINCUBATION
[2] = Test System: AMES SALMONELLA TYPHIMURIUM, Strain/Indicator: TA100, Metabolic Activation: NONE, Method: PREINCUBATION
[3] = Test System: AMES SALMONELLA TYPHIMURIUM, Strain/Indicator: TA1535, Metabolic Activation: NONE, Method: PREINCUBATION
[4] = Test System: AMES SALMONELLA TYPHIMURIUM, Strain/Indicator: TA1537, Metabolic Activation: NONE, Method: PREINCUBATION
[5] = Test System: AMES SALMONELLA TYPHIMURIUM, Strain/Indicator: TA100, Metabolic Activation: NONE, Method: STANDARD PLATE
[6] = Test System: AMES SALMONELLA TYPHIMURIUM, Strain/Indicator: TA100, Metabolic Activation: S-9, Method: STANDARD PLATE

## COc1nc(N)nc2c1ncn2[C@H]1C[C@H](O)[C@@H](COP(=O)(O)OP(=O)(O)OP(=O)(O)O)O1
Test System: CHINESE HAMSTER OVARY, Strain/Indicator: CHO-K1 (HGPRT), Metabolic Activation: NONE
  mutagenic call: inactive; negative

## CCOP(=S)(OCC)SCSC(C)(C)C
Test System: AMES SALMONELLA TYPHIMURIUM, Strain/Indicator: TA98, Metabolic Activation: HAMSTER, LIVER, S-9, AROCLOR 1254 (10%), Method: PREINCUBATION
  mutagenic call: inactive; negative
[1]
  mutagenic call: inactive; negative
Test System: AMES SALMONELLA TYPHIMURIUM, Strain/Indicator: TA98, Metabolic Activation: RAT, LIVER, S-9, AROCLOR 1254 (10%), Method: PREINCUBATION
  mutagenic call: inactive; negative
Test System: AMES SALMONELLA TYPHIMURIUM, Strain/Indicator: TA100, Metabolic Activation: HAMSTER, LIVER, S-9, AROCLOR 1254 (10%), Method: PREINCUBATION
  mutagenic call: inactive; negative
[2]
  mutagenic call: inactive; negative
Test System: AMES SALMONELLA TYPHIMURIUM, Strain/Indicator: TA100, Metabolic Activation: RAT, LIVER, S-9, AROCLOR 1254 (10%), Method: PREINCUBATION
  mutagenic call: inactive; negative
Test System: AMES SALMONELLA TYPHIMURIUM, Strain/Indicator: TA1535, Metabolic Activation: HAMSTER, LIVER, S-9, AROCLOR 1254 (10%), Method: PREINCUBATION
  mutagenic call: inactive; negative
[3]
  mutagenic call: inactive; negative
Test System: AMES SALMONELLA TYPHIMURIUM, Strain/Indicator: TA1535, Metabolic Activation: RAT, LIVER, S-9, AROCLOR 1254 (10%), Method: PREINCUBATION
  mutagenic call: inactive; negative
Test System: AMES SALMONELLA TYPHIMURIUM, Strain/Indicator: TA1537, Metabolic Activation: HAMSTER, LIVER, S-9, AROCLOR 1254 (10%), Method: PREINCUBATION
  mutagenic call: inactive; negative
[4]
  mutagenic call: inactive; negative
Test System: AMES SALMONELLA TYPHIMURIUM, Strain/Indicator: TA1537, Metabolic Activation: RAT, LIVER, S-9, AROCLOR 1254 (10%), Method: PREINCUBATION
  mutagenic call: inactive; negative

## FC(F)C(F)C(F)(F)F (centres undefined)
Test System: AMES SALMONELLA TYPHIMURIUM, Strain/Indicator: TA97, Metabolic Activation: NONE, Method: CLOSED GLASS VESSEL
  mutagenic call: inactive; negative
Test System: AMES SALMONELLA TYPHIMURIUM, Strain/Indicator: TA97, Metabolic Activation: RAT LIVER S-9, AROCLOR 1254, Method: CLOSED GLASS VESSEL
  mutagenic call: inactive; negative
Test System: AMES SALMONELLA TYPHIMURIUM, Strain/Indicator: TA98, Metabolic Activation: NONE, Method: CLOSED GLASS VESSEL
  mutagenic call: inactive; negative
Test System: AMES SALMONELLA TYPHIMURIUM, Strain/Indicator: TA98, Metabolic Activation: RAT LIVER S-9, AROCLOR 1254, Method: CLOSED GLASS VESSEL
  mutagenic call: inactive; negative
Test System: AMES SALMONELLA TYPHIMURIUM, Strain/Indicator: TA100, Metabolic Activation: NONE, Method: CLOSED GLASS VESSEL
  mutagenic call: inactive; negative
Test System: AMES SALMONELLA TYPHIMURIUM, Strain/Indicator: TA100, Metabolic Activation: RAT LIVER S-9, AROCLOR 1254, Method: CLOSED GLASS VESSEL
  mutagenic call: inactive; negative
Test System: AMES SALMONELLA TYPHIMURIUM, Strain/Indicator: TA1535, Metabolic Activation: NONE, Method: CLOSED GLASS VESSEL
  mutagenic call: inactive; negative
Test System: AMES SALMONELLA TYPHIMURIUM, Strain/Indicator: TA1535, Metabolic Activation: RAT LIVER S-9, AROCLOR 1254, Method: CLOSED GLASS VESSEL
  mutagenic call: inactive; negative
Test System: ESCHERICHIA COLI, Strain/Indicator: WP2 UVR A, Metabolic Activation: NONE, Method: CLOSED GLASS VESSEL
  mutagenic call: inactive; negative
Test System: ESCHERICHIA COLI, Strain/Indicator: WP2 UVR A, Metabolic Activation: RAT LIVER S-9, AROCLOR 1254, Method: CLOSED GLASS VESSEL
  mutagenic call: inactive; negative

## O=C(Cl)c1c(Cl)cccc1Cl
[1]
  mutagenic call: active; positive
Test System: AMES SALMONELLA TYPHIMURIUM, Strain/Indicator: TA98, Metabolic Activation: RAT LIVER S-9, PCB, Method: PREINCUBATION
  mutagenic call: active; positive
[2]
  mutagenic call: active; positive
Test System: AMES SALMONELLA TYPHIMURIUM, Strain/Indicator: TA100, Metabolic Activation: RAT LIVER S-9, PCB, Method: PREINCUBATION
  mutagenic call: active; positive
Test System: AMES SALMONELLA TYPHIMURIUM, Strain/Indicator: TA104, Metabolic Activation: NONE, Method: PREINCUBATION
  mutagenic call: inactive; negative
Test System: AMES SALMONELLA TYPHIMURIUM, Strain/Indicator: TA104, Metabolic Activation: RAT LIVER S-9, PCB, Method: PREINCUBATION
  mutagenic call: active; positive
Test System: E.COLI, Strain/Indicator: WP2 UVRA, Metabolic Activation: NONE, Method: PREINCUBATION
  mutagenic call: active; positive
Test System: E.COLI, Strain/Indicator: WP2 UVRA, Metabolic Activation: RAT LIVER S-9, PCB, Method: PREINCUBATION
  mutagenic call: active; positive

## CC(=O)OCc1c2ccccc2cc2ccc3ccccc3c12
Test System: AMES SALMONELLA TYPHIMURIUM, Strain/Indicator: TA98, Metabolic Activation: NONE, Method: STANDARD PLATE
  mutagenic call: active; positive
[5]
  mutagenic call: active; positive

## Oc1ccc(Cl)cc1Cl
End Point: IN VITRO CHROMOSOMAL ABERRATIONS, Test System: CHO CELLS, Metabolic Activation: RAT, LIVER, S-9, AROCLOR 1254
  mutagenic call: inactive; negative
End Point: IN VITRO CHROMOSOMAL ABERRATIONS, Test System: CHO CELLS, Metabolic Activation: RAT, LIVER, S-9, PHENOBARBITAL AND BETA-NAPHTHOFLAVONE
  mutagenic call: active; positive
End Point: IN VITRO CHROMOSOMAL ABERRATIONS, Test System: TK6 HUMAN LYMPHOBLASTS, Metabolic Activation: NONE
  mutagenic call: inactive; negative; authors reported the results as equivocal
Test System: AMES SALMONELLA TYPHIMURIUM, Strain/Indicator: TA98, Metabolic Activation: HAMSTER, LIVER, S-9, AROCLOR 1254, Method: PREINCUBATION
  mutagenic call: inactive; negative
[1]
  mutagenic call: inactive; negative
Test System: AMES SALMONELLA TYPHIMURIUM, Strain/Indicator: TA98, Metabolic Activation: RAT, LIVER, S-9, AROCLOR 1254, Method: PREINCUBATION
  mutagenic call: inactive; negative
Test System: AMES SALMONELLA TYPHIMURIUM, Strain/Indicator: TA98, Metabolic Activation: S-9, Method: STANDARD PLATE
  mutagenic call: inactive; negative
Test System: AMES SALMONELLA TYPHIMURIUM, Strain/Indicator: TA100, Metabolic Activation: HAMSTER, LIVER, S-9, AROCLOR 1254, Method: PREINCUBATION
  mutagenic call: inactive; negative
[2]
  mutagenic call: inactive; negative
Test System: AMES SALMONELLA TYPHIMURIUM, Strain/Indicator: TA100, Metabolic Activation: RAT, LIVER, S-9, AROCLOR 1254, Method: PREINCUBATION
  mutagenic call: inactive; negative
[6]
  mutagenic call: inactive; negative
[3]
  mutagenic call: inactive; negative
Test System: AMES SALMONELLA TYPHIMURIUM, Strain/Indicator: TA1535, Metabolic Activation: RAT, LIVER, S-9, AROCLOR 1254, Method: PREINCUBATION
  mutagenic call: inactive; negative
Test System: AMES SALMONELLA TYPHIMURIUM, Strain/Indicator: TA1537, Metabolic Activation: HAMSTER, LIVER, S-9, AROCLOR 1254, Method: PREINCUBATION
  mutagenic call: inactive; negative
[4]
  mutagenic call: inactive; negative
Test System: AMES SALMONELLA TYPHIMURIUM, Strain/Indicator: TA1537, Metabolic Activation: RAT, LIVER, S-9, AROCLOR 1254, Method: PREINCUBATION
  mutagenic call: inactive; negative
Test System: AMES SALMONELLA TYPHIMURIUM, Strain/Indicator: YG1021, Metabolic Activation: S-9, Method: STANDARD PLATE
  mutagenic call: inactive; negative
Test System: AMES SALMONELLA TYPHIMURIUM, Strain/Indicator: YG1024, Metabolic Activation: S-9, Method: STANDARD PLATE
  mutagenic call: inactive; negative
Test System: AMES SALMONELLA TYPHIMURIUM, Strain/Indicator: YG1026, Metabolic Activation: S-9, Method: STANDARD PLATE
  mutagenic call: inactive; negative
Test System: AMES SALMONELLA TYPHIMURIUM, Strain/Indicator: YG1029, Metabolic Activation: S-9, Method: STANDARD PLATE
  mutagenic call: inactive; negative
Test System: CHINESE HAMSTER V-79, Strain/Indicator: V-79/6-THIOGUANINE, Metabolic Activation: NONE, Method: STANDARD PLATE
  mutagenic call: inactive; negative
Test System: MOUSE LYMPHOMA, Strain/Indicator: L5178Y (TK+/TK-), Metabolic Activation: NONE, Method: SUSPENSION/PLATE
  mutagenic call: active; positive

## CCCC(=O)Nc1snc2cc(Cl)ccc12
[5]
  mutagenic call: inactive; negative
[6]
  mutagenic call: inactive; negative
Test System: AMES SALMONELLA TYPHIMURIUM, Strain/Indicator: TA1537, Metabolic Activation: NONE, Method: STANDARD PLATE
  mutagenic call: inactive; negative
Test System: AMES SALMONELLA TYPHIMURIUM, Strain/Indicator: TA1537, Metabolic Activation: S-9, Method: STANDARD PLATE
  mutagenic call: inactive; negative
